Experimental data from patent US11572590B2, “Methods for evaluating tumor cell spheroids using 3D microfluidic cell culture device” (Dana-Farber Cancer Institute, Inc., priority 2017, dated 2023).
Read-outs that look alike come from different tables or passages of the source.

What was measured:
[1] = biological target: off-target kinases (Homo sapiens, UniProt P07948); assay: SelectScreen Kinase Profiling, single point inhibition and IC50 for off-target kinases; assay type: biochemical; set-up: other: LYN B; 1000 μM; ATP Km app; ZLYTE; details: LYN B, ATP Km app, ZLYTE
Experimental: Biochemical single point inhibition and IC50 concentrations for TBK1, IKKε (IKBKE), and off-target kinases were determined at ThermoFisher Scientific using SelectScreen Kinase Profiling Services (Madison, Wis., USA) (Tables S4A and S4B-1-7). To determine cellular potency, the human colorectal cancer carcinoma cell line HCT116 (ATCC, Manassas, Va.) was maintained in T175 flasks in complete RPMI medium; RPMI 1640 supplemented with 10% FBS, 1× Penicillin-Streptomycin solution and 1×MEM (non-essential amino acids). HCT116 cells were grown to 90-95% confluency in T175 flasks containing complete RPMI medium and transfected in bulk using Lipofectamine 2000 (Invitrogen, Carlsbad, Calif.) with 70 μg of ISG54-luciferase reporter plasmid (Elim Biopharmaceuticals Inc., Hayward, Calif.). The reporter plasmid contains a luciferase gene expression cassette under the transcriptional regulation of the promoter of the human interferon stimulated gene 54 (ISG54). Transfection of the cells was allowed to take place for 6 hours, after which the cells were harvested by treatment with 0.25% trypsin EDTA (Corning Inc., Corning, N.Y.). Trypsinized cells were added to 384-well poly-d-lysine treated black clear bottom tissue culture assay plates (Greiner Bio-One GmbH, Kremsmünster, Austria) at a density of 20,000 cells/well in 80 μL of complete RPMI medium and incubated overnight. After 16-18 hours post-transfection, the assay plates were washed with PBS (Corning Inc., Corning, N.Y.), followed by addition of 80 μL/well of serum-free RPMI 1640 medium containing 1× Penicillin-Streptomycin solution, 1×MEM and 350 nL of DMSO or titrations of Compound 1. […] The assay plates were incubated for 5 hours at 37° C., followed by addition of One-Glo luciferase firefly reagent (Promega, Madison, Wis.) at 1:1 volume/well and luminescence was measured in an EnVision Multilabel Plate Reader (PerkinElmer, Santa Clara, Calif.). The EC50 values were calculated from the fit of the dose-response curves to a four-parameter equation. […]

[2] = system: Jurkat T cell leukemia cells; assay: IL-2 secretion by Jurkat cells on anti-CD3 coated plates; assay type: cell-based; details: dose titration, 24 hours
Experimental: Freshly isolated human CD4+ and CD8+ T cells were obtained from AllCells (Alameda, Calif., USA). Cells were spun down and resuspended in serum free Xvivo15 media (Lonza Walkersville, Inc., Chicago, Ill., USA) supplemented with 5 ng/mL […] and incubated overnight at 37° C. Cells were plated on anti-CD3 coated plates (5 μg/mL OKT3, eBioscience, Dallas, Tex., USA, overnight) with 2 μg/mL anti-CD28 (eBioscience, Dallas, Tex., USA). Cells are treated in replicate plates with a dose-titration of Compound 1 for 24 hours for IL-2 and 96 hours for IFNγ. IL-2 and IFNγ in the supernatant were measured using single- or multi-plex immunoassay (Mesoscale Discovery, Rockville, Md., USA). Jurkat T cell leukemia cells (clone E61 obtained from ATCC) plated on anti-CD3 coated plates were treated with a dose titration of Compound 1 for 24 hours. IL-2 in the supernatant was measured as described above.

Chain of off-target kinases (P07948 1-491 isoform P07948-2): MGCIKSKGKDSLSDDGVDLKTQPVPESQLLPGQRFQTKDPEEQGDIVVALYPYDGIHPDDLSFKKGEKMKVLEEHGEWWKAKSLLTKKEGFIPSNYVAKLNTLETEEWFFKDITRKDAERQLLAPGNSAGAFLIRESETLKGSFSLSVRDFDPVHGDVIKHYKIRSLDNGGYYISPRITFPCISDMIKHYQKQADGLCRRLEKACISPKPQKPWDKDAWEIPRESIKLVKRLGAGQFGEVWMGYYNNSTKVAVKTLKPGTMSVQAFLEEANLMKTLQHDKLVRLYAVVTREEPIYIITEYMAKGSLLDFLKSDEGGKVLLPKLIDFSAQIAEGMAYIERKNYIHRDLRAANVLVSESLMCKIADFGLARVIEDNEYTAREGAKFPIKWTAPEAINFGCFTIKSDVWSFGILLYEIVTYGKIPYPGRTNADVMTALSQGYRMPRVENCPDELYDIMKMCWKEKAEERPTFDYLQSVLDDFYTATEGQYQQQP

**Q.** `N#Cc1cc(-c2ncnc(Nc3ccc(N4CCN(C5COC5)CC4)cc3)n2)ccc1OC1CCOCC1` [Compound 1, 5-(4-((4-(4-(oxetan-3-yl)piperazin-1-yl)phenyl)amino)-1,3,5-triazin-2-yl)-2-((tetrahydro-2H-pyran-4-yl)oxy)benzonitrile] was tested. Which inhibition ([1]; read-out: % Inhibition 1) did it give?
**A.** 56%

**Q.** What about the inhibition ([1]; read-out: % Inhibition 2) of the same compound?
**A.** 50%

**Q.** And the inhibition ([1]; read-out: % Inhibition Avg)?
**A.** 53%

**Q.** What about the “secretion of IL-2 from Jurkat cells” value [2] of the same compound?
**A.** enhanced secretion
